ChEMBL document CHEMBL1240489, “Discovery of N-{1-[3-(3-oxo-2,3-dihydrobenzo[1,4]oxazin-4-yl)propyl]piperidin-4-yl}-2-phenylacetamide (Lu AE51090): an allosteric muscarinic M1 receptor agonist with unprecedented selectivity and procognitive potential” (J Med Chem, 2010)

Key:
[1] = biological target: T1, Muscarinic acetylcholine receptor M1 (Homo sapiens) (UniProt P11229); assay: Agonist activity at human muscarinic M1 receptor expressed in CHO-K1 cells assessed as increase of acetylcholine-induced calcium flux by FLIPR assay relative to acetylcholine; format: functional, cell-based
T1 sequence (whole entry): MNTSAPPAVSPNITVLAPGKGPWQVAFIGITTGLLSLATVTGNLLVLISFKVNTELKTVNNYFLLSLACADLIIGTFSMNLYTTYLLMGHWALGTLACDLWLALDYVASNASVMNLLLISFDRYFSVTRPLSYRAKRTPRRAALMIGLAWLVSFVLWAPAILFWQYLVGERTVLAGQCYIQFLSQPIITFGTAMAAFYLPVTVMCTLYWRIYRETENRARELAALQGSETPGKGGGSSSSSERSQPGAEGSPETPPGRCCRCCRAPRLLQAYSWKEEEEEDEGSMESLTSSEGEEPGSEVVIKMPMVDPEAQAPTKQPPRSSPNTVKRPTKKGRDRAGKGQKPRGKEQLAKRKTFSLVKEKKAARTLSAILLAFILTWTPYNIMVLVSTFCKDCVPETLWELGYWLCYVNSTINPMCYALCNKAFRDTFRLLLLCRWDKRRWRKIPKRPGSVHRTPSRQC

[2] = biological target: T2, Muscarinic acetylcholine receptor M1 (Homo sapiens, UniProt P11229)
T2 sequence (P11229 whole entry): T1 sequence (whole entry)

[3] = biological target: T1, Muscarinic acetylcholine receptor M1 (Homo sapiens); assay: Agonist activity at human muscarinic M1 receptor expressed in CHO-K1 cells assessed as increase of acetylcholine-induced calcium flux at 10 uM by FLIPR assay relative to acetylcholine; format: functional, cell-based
[4] = biological target: Alpha-1B adrenergic receptor (Homo sapiens, UniProt P35368); assay: Binding affinity to human adrenergic Alpha-1B receptor by radioligand displacement assay
Alpha-1B adrenergic receptor, sequence (P35368 whole entry): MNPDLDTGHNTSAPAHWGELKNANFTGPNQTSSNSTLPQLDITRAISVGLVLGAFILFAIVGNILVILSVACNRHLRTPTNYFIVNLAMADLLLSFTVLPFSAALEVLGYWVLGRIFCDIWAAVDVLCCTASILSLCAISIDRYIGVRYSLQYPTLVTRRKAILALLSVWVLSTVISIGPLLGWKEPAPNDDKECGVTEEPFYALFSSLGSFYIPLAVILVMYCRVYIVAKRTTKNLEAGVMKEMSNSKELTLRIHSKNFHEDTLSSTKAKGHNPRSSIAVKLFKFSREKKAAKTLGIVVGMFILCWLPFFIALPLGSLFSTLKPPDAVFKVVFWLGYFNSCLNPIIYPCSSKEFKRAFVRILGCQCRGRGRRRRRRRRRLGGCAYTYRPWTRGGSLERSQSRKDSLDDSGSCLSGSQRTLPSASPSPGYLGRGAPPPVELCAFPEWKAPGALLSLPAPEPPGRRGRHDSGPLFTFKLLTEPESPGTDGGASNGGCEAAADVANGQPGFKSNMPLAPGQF

[5] = biological target: T3, Muscarinic acetylcholine receptor M3 (Homo sapiens, UniProt P20309); assay: Agonist activity at human muscarinic M3 receptor expressed in BHK-21 cells assessed as increase of acetylcholine-induced calcium flux at 10 uM by FLIPR assay relative to acetylcholine; format: functional, cell-based
Target sequence in this assay (P20309 whole entry, looked up): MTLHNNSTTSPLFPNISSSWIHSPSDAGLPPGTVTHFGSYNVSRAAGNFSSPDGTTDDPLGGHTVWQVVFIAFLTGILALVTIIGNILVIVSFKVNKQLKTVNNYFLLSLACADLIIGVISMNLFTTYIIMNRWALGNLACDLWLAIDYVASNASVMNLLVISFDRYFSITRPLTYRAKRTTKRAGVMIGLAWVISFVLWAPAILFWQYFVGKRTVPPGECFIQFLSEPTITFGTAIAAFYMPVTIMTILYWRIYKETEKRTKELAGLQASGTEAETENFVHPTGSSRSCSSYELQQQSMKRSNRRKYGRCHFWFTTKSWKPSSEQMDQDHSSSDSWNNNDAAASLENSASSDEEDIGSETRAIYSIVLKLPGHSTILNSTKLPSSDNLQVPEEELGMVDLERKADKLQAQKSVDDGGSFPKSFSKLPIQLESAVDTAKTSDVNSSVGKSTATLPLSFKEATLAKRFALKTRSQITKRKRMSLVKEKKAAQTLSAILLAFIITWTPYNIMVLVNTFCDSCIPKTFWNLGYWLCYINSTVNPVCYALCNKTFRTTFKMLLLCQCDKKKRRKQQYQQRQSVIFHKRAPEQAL

[6] = biological target: T4, Muscarinic acetylcholine receptor M5 (Homo sapiens, UniProt P08912); assay: biochemical
T4 sequence (P08912 whole entry): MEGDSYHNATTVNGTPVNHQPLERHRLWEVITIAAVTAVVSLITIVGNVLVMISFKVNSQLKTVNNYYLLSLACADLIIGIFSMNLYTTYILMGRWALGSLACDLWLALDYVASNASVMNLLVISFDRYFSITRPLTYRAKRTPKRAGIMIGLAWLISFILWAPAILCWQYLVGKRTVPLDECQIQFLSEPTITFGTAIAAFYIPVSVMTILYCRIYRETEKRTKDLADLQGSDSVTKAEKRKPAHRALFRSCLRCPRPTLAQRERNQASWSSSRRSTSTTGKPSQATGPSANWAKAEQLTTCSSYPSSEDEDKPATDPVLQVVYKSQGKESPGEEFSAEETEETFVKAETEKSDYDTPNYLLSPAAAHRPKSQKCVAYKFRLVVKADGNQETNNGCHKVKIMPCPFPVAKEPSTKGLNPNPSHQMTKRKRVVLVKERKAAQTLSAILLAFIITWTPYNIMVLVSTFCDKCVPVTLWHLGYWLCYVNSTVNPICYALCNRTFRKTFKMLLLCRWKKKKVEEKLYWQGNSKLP
Description: Displacement of [3H]-4-DAMP from human muscarinic M5 receptor expressed in BHK-21 cells

[7] = biological target: Alpha-1D adrenergic receptor (Homo sapiens, UniProt P25100); assay: Binding affinity to human adrenergic Alpha-1D receptor by radioligand displacement assay
Alpha-1D adrenergic receptor, sequence (P25100 whole entry): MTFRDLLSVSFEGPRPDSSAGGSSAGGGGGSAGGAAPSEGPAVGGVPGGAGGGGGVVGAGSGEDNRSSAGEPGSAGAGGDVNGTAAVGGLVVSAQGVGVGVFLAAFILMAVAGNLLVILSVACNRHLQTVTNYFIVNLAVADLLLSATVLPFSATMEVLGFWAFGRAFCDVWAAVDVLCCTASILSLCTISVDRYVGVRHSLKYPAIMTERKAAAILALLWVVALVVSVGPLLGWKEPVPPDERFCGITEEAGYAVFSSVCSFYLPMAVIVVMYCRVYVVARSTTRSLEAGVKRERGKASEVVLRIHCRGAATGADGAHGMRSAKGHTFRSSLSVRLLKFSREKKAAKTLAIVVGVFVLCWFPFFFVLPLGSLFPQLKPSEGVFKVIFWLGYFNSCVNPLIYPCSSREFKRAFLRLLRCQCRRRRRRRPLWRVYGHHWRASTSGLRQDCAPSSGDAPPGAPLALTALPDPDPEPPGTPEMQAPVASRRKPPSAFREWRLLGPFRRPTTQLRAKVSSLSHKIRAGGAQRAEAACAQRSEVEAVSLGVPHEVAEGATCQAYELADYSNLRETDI

[8] = biological target: T5, Muscarinic acetylcholine receptor M5 (Homo sapiens) (UniProt P08912); assay: Agonist activity at human muscarinic M5 receptor expressed in BHK-21 cells assessed as increase of acetylcholine-induced calcium flux at 10 uM by FLIPR assay relative to acetylcholine; format: functional, cell-based
T5 sequence (whole entry): T4 sequence (P08912 whole entry)

[9] = biological target: Alpha-1A adrenergic receptor (Homo sapiens, UniProt P35348); assay: Binding affinity to human adrenergic alpha1A receptor by radioligand displacement assay
Alpha-1A adrenergic receptor, sequence (P35348 whole entry): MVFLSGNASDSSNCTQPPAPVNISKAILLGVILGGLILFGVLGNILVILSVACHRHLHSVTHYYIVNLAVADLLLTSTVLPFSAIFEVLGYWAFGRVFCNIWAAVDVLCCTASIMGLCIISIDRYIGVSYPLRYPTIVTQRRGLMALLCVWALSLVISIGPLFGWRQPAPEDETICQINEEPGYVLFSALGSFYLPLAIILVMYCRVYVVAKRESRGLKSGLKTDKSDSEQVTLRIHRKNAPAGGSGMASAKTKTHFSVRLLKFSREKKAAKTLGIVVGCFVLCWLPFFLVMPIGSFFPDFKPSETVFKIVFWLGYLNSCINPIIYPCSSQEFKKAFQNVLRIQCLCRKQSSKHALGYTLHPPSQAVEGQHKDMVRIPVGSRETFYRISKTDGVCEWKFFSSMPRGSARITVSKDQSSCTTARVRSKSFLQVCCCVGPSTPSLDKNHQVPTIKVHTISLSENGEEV

[10] = biological target: T6, Muscarinic acetylcholine receptor M4 (Homo sapiens) (UniProt P08173); assay: Agonist activity at human muscarinic M4 receptor expressed in BHK-21 cells coexpressing Galpha16 subunit assessed as increase of acetylcholine-induced calcium flux at 10 uM by FLIPR assay relative to acetylcholine; format: functional, cell-based
T6 sequence (whole entry): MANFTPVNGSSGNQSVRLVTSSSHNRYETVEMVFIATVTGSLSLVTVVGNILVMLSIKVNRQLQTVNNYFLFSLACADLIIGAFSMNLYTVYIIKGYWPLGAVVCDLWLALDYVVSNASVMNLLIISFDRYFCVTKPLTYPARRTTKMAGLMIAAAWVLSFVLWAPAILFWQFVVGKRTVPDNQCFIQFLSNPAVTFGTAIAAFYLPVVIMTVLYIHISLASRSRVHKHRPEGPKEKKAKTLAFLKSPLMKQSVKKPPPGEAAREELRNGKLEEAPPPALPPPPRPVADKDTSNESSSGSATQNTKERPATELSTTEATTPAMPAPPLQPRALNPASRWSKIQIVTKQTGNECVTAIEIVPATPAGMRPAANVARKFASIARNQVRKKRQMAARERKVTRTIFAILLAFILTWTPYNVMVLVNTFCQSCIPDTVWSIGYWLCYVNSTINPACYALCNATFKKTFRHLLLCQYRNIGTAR

[11] = biological target: 5-hydroxytryptamine receptor 2C (Homo sapiens, UniProt P28335); assay: Binding affinity to human 5HT2C receptor agonist site by radioligand displacement assay
5-hydroxytryptamine receptor 2C, sequence (P28335 whole entry): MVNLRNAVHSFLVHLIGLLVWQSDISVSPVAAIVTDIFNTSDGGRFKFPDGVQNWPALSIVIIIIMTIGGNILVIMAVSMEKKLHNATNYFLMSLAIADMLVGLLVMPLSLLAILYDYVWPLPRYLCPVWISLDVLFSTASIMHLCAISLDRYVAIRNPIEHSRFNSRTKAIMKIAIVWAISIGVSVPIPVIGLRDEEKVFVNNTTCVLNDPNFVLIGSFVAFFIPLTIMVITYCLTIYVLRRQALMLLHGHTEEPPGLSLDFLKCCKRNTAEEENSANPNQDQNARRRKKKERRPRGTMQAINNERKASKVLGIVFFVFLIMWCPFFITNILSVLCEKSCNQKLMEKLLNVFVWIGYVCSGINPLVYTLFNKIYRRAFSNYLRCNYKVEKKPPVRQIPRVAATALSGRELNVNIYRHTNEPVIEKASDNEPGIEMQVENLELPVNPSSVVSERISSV

[12] = biological target: T7, Muscarinic acetylcholine receptor M2 (Homo sapiens, UniProt P08172); assay: Displacement of [3H]-AFDX-384 from human muscarinic M2 receptor expressed in CHO-K1 cells; format: cell-based
T7 sequence (P08172 whole entry): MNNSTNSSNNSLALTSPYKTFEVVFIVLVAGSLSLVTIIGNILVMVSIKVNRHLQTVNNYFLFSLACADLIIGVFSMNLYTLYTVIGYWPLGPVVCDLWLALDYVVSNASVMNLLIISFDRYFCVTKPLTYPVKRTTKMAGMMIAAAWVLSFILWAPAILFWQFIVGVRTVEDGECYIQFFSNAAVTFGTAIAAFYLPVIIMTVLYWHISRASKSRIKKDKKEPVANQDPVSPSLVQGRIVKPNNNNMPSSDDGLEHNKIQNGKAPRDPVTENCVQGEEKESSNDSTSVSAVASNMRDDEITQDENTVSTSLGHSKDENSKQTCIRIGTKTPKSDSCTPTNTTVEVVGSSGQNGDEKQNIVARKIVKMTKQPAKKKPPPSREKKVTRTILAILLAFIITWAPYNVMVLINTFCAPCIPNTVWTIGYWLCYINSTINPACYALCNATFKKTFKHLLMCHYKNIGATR

[13] = biological target: T3, Muscarinic acetylcholine receptor M3; assay: Displacement of [3H]-4-DAMP from human muscarinic M3 receptor expressed in BHK-21 cells; format: cell-based
Target sequence in this assay (P20309 whole entry): as the sequence (P20309 whole entry, looked up) above

[14] = biological target: T5, Muscarinic acetylcholine receptor M5 (Homo sapiens); assay: Agonist activity at human muscarinic M5 receptor expressed in BHK-21 cells assessed as increase of acetylcholine-induced calcium flux by FLIPR assay relative to acetylcholine; format: functional, cell-based
[15] = biological target: T3, Muscarinic acetylcholine receptor M3
Target sequence in this assay (P20309 whole entry): as the sequence (P20309 whole entry, looked up) above

[16] = biological target: T8, Muscarinic acetylcholine receptor M2 (Homo sapiens) (UniProt P08172); assay: Agonist activity at human muscarinic M2 receptor expressed in CHO-K1 cells coexpressing Galpha16 subunit assessed as increase of acetylcholine-induced calcium flux at 10 uM by FLIPR assay relative to acetylcholine; format: functional, cell-based
T8 sequence (whole entry): T7 sequence (P08172 whole entry)

[17] = biological target: T6, Muscarinic acetylcholine receptor M4 (Homo sapiens); assay: Agonist activity at human muscarinic M4 receptor expressed in BHK-21 cells coexpressing Galpha16 subunit assessed as increase of acetylcholine-induced calcium flux by FLIPR assay relative to acetylcholine; format: functional, cell-based
[18] = biological target: Muscarinic acetylcholine receptor M1 (Homo sapiens, UniProt P11229, Y381A)
Muscarinic acetylcholine receptor M1 (Homo sapiens, UniProt P11229, Y381A), sequence (P11229 whole entry Y381A): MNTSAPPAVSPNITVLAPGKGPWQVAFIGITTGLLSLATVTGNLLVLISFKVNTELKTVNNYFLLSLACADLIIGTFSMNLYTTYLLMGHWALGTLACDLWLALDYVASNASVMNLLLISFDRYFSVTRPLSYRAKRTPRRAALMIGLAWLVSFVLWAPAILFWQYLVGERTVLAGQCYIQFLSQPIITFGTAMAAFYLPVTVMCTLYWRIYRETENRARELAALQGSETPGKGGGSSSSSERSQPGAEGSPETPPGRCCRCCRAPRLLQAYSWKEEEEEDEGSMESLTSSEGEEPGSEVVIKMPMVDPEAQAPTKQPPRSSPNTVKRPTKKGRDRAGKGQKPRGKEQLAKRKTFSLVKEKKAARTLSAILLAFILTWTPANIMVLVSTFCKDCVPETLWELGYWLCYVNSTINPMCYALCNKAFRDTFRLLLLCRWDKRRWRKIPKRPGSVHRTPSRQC

[19] = biological target: T4, Muscarinic acetylcholine receptor M5; assay: Agonist activity at human muscarinic M5 receptor expressed in BHK-21 cells assessed as increase of acetylcholine-induced calcium flux by FLIPR assay; format: functional, cell-based
[20] = test system: Muscarinic acetylcholine receptor M1 (Homo sapiens), P11229 [Y381A]; assay: Agonist activity at human muscarinic M1 receptor Y381A mutant expressed in CHO-K1 cells assessed as increase of acetylcholine-induced calcium flux by FLIPR assay relative to acetylcholine; format: functional, cell-based
Muscarinic acetylcholine receptor M1 (Homo sapiens), P11229 [Y381A], sequence (P11229 whole entry Y381A): as above

[21] = biological target: T9, Muscarinic acetylcholine receptor M4 (Homo sapiens, UniProt P08173); assay: Agonist activity at human muscarinic M4 receptor expressed in BHK-21 cells coexpressing Galpha16 subunit assessed as increase of acetylcholine-induced calcium flux by FLIPR assay; format: functional, cell-based
T9 sequence (P08173 whole entry): T6 sequence (whole entry)

Emax [1]	EC50 [2]	Structure (SMILES)	also measured
88%	10 nM	CCC(=O)NC1CCN(CCCN2C(=O)COc3cc(F)c(F)cc32)CC1	–
75%	290 nM	O=C(Cc1ccccc1)NC1CCN(CCCN2C(=O)CCc3cccc(F)c32)CC1	–
72%	46 nM	CC(C)C(=O)NC1CCN(CCCN2C(=O)COc3ccccc32)CC1	–
41%	350 nM	O=C(NC1CCN(CCCN2C(=O)COc3ccccc32)CC1)C1CCCC1	–
–	–	O=C(NC1CCN(CCCN2C(=O)COc3ccccc32)CC1)C1CCCCC1	Emax [3]: 3%
83%	120 nM	COc1ccc2c(c1)N(CCCN1CCC(NC(=O)Cc3ccccc3)CC1)C(=O)CC2	–
76%	86 nM	CC(=O)NC1CCN(CCCN2C(=O)CCc3cc(F)c(F)cc32)CC1	–
37%	160 nM	O=C(NC1CCN(CCCN2C(=O)COc3ccccc32)CC1)C1CCC1	–
84%	560 nM	COc1ccc2c(c1)CCC(=O)N2CCCN1CCC(NC(=O)Cc2ccccc2)CC1	–
89%	48 nM	O=C(Cc1ccccc1)NC1CCN(CCCN2C(=O)CCc3ccccc32)CC1	–
74%	180 nM	CC(=O)NC1CCN(CCCN2C(=O)COc3ccccc32)CC1	–
–	–	CC(C)CC(=O)NC1CCN(CCCN2C(=O)COc3ccccc32)CC1	Emax [3]: 21%
60%	970 nM	O=C(CCc1ccccc1)NC1CCN(CCCN2C(=O)COc3ccccc32)CC1	–
87%	20 nM	CCC(=O)NC1CCN(CCCN2C(=O)CCc3cc(F)c(F)cc32)CC1	–
90%	19 nM	CCC(=O)NC1CCN(CCCN2C(=O)CCc3c(F)cccc32)CC1	–
89%	15 nM	O=C(Cc1ccccc1)NC1CCN(CCCN2C(=O)CCc3cc(F)c(F)cc32)CC1	–
83%	20 nM	CCC(=O)NC1CCN(CCCN2C(=O)CCc3ccc(F)cc32)CC1	–
70%	1100 nM	O=C(Cc1ccccc1)NC1CCN(CCCn2c(=O)oc3ccccc32)CC1	–
83%	9 nM	CCC(=O)NC1CCN(CCCN2C(=O)CCc3cc(F)ccc32)CC1	–
78%	27 nM	CCC(=O)NC1CCN(CCCN2C(=O)COc3ccccc32)CC1	–
79%	100 nM	O=C(Cc1ccccc1)NC1CCN(CCCN2C(=O)CSc3ccccc32)CC1	–
74%	110 nM	O=C(NC1CCN(CCCN2C(=O)COc3ccccc32)CC1)C1CC1	–
86%	51 nM	O=C(Cc1ccccc1)NC1CCN(CCCN2C(=O)CCc3ccc(F)cc32)CC1	–
91%	13 nM	COc1ccc(CC(=O)NC2CCN(CCCN3C(=O)CCc4cc(F)c(F)cc43)CC2)cc1OC	Emax [5]: 7%; Emax [14]: 52%; EC50 [19]: 1200 nM; Emax [16]: 2%; Emax [17]: 48%; EC50 [21]: 300 nM
86%	130 nM	COc1cccc(CC(=O)NC2CCN(CCCN3C(=O)COc4ccccc43)CC2)c1	Emax [5]: 0%; Emax [8]: 6%; Emax [16]: 0%; Emax [10]: 3%
–	–	O=C(NC1CCN(CCCN2C(=O)COc3ccccc32)CC1)c1ccccc1	Emax [3]: 8%
78%	310 nM	CCC(=O)NC1CCN(CCCN2C(=O)CCc3cccc(F)c32)CC1	–
77%	150 nM	O=C(Cc1ccccc1)NC1CCN(CCCN2C(=O)CCc3c(F)cccc32)CC1	–
67%	910 nM	CN(C(=O)Cc1ccccc1)C1CCN(CCCN2C(=O)COc3ccccc32)CC1	–
79%	49 nM	O=C(Cc1ccccc1)NC1CCN(CCCN2C(=O)CCc3cc(F)ccc32)CC1	–

Structure (SMILES)	Emax [1]	EC50 [2]	also measured
Cc1ccccc1CN1CCC(N2CCC(n3c(=O)[nH]c4ccccc43)CC2)CC1	86%	–	Ki [4]: 19 nM; Emax [5]: 1%; Ki [6]: 940 nM; Ki [7]: 290 nM; Emax [8]: 5%; Ki [9]: 11 nM; Emax [10]: 38%; Ki [11]: 85 nM; Ki [12]: 320 nM
CCCCCCOc1nsnc1C1=CCCN(C)C1 [XANOMELINE]	89%	–	Ki [13]: 13 nM; Emax [14]: 60%; EC50 [15]: 120 nM; Emax [16]: 9%; Emax [17]: 72%
Clc1ccc2c(c1)N=C(N1CCNCC1)c1ccccc1N2 [N-DESMETHYLCLOZAPINE]	75%	18 nM	Ki [13]: 90 nM; EC50 [18]: 140 nM; Emax [5]: 10%; Ki [6]: 51 nM; Emax [14]: 34%; EC50 [19]: 170 nM; Emax [16]: 3%; Emax [17]: 12%; Ki [12]: 250 nM; Emax [20]: 72%
